Experimental data published in patent US20130196050A1, “SALTY TASTE ENHANCER” (AJINOMOTO CO., INC., priority 2010, published 2013).

Target: T1, Human ENaC δ, β and γ subunit (Homo sapiens, UniProt P51168+P51170+P51172)
T1 construct: expressed in transfected cells; host or cells: Xenopus laevis (African clawed frog) oocytes injected with cRNA
T1 sequence (P51172 1-638 isoform P51172-1): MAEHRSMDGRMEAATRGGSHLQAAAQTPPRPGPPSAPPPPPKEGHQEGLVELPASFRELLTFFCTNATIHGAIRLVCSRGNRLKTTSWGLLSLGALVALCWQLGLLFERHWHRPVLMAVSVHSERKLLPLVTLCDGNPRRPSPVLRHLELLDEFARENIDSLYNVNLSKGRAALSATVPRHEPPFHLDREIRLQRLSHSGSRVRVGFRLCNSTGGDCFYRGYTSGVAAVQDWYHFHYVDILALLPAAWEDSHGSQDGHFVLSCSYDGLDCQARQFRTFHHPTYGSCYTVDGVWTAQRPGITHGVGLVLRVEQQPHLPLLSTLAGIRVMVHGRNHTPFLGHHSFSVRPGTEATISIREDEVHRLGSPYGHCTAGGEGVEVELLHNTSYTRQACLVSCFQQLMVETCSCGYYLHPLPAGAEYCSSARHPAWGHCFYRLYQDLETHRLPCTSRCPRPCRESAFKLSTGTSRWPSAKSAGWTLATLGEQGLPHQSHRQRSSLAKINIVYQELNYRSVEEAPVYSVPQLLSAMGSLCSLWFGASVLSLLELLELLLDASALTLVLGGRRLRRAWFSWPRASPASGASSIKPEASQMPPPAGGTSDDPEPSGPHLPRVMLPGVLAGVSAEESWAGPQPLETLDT
T1 sequence (P51168 1-640): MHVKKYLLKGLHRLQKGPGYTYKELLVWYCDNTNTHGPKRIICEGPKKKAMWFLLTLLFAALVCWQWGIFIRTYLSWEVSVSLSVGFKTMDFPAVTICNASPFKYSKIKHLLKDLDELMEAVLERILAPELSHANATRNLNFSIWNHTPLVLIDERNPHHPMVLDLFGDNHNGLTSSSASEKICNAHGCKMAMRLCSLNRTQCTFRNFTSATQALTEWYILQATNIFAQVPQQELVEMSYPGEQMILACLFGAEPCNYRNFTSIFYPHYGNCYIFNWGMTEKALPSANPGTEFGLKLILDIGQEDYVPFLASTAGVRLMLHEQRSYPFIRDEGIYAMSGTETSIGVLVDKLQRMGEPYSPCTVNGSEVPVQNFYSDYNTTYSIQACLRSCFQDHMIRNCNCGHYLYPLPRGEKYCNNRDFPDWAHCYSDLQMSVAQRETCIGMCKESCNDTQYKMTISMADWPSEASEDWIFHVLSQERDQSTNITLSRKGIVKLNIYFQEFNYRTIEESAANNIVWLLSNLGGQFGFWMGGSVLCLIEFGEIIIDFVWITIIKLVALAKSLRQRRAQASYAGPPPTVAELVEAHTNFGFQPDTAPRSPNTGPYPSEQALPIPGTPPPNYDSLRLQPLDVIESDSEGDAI
T1 sequence (P51170 1-649): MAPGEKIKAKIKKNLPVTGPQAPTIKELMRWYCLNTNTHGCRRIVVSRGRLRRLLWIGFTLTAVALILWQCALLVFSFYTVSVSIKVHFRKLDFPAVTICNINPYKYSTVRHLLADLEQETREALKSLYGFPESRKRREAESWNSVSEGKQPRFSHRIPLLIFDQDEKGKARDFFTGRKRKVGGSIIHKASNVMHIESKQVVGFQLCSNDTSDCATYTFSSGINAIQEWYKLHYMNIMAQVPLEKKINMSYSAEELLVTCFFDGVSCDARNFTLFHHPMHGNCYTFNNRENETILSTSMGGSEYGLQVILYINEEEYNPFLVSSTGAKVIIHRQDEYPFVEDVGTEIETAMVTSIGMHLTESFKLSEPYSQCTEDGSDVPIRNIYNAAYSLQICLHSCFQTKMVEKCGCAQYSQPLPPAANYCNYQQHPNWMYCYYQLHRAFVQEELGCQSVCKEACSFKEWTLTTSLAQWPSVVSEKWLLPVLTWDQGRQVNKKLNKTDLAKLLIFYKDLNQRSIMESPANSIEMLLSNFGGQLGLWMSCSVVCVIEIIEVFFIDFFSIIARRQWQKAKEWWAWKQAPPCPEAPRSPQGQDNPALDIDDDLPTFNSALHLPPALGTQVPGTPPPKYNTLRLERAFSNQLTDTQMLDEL
Test: Measurement of ENaC activation potency (two electrode voltage clamp current in ENaC-expressing oocyte)
Type: cell-based
Settings: lowest concentration increasing the current value by not less than 10% vs before addition
Procedure: ENaC activation current value, namely, the inward current in ENaC-expressing oocyte was measured as follows.
According to the method described in Motonao Nakamura, Takao Shimizu: Experiment of African clawed frog oocyte, Experimental Medicine Vol. 11, No. 3, 224-232 (1993), oocyte was collected from African clawed frog, […], and the current value was measured by a Two Electrode Voltage Clamp technique. In the present invention, ND96 (96 mM NaCl, 2 mM KCl, 1 mM MgCl2, 5 mM Hepes, 1.8 mM CaCl2, pH 7.6) was used instead of MBS buffer in the above-mentioned document. Injector NANOLITER 2000 manufactured by World Precision Instruments was used for microinjection, OpusXpress 6000A manufactured by Molecular Devices was used for current value measurement by a Two Electrode Voltage Clamp technique, and Clampfit 10.2 software manufactured by Molecular Devices was used for data analysis.
Human ENaC δ, β and γ subunit genes shown by SEQ ID NOs: 1, 2 and 3, respectively, in the Sequence Listing were each cloned into a plasmid vector, and used as a template DNA for cRNA synthesis. cRNA was synthesized using MEGAscript kit manufactured by Ambion and according to the method of the manual of the manufacturer.
A mixture of the same amount of ENaC δ subunit cRNA (0.4 to 0.8 μg/μL), and β and γ subunits cRNA (0.4 μg/μL) was injected into the oocyte of African clawed frog at 27.6 nL per oocyte, and the oocyte was cultured for 16 hours to 72 hours. Thereafter, the oocyte was set on a measuring apparatus OpusXpress 6000A, the electrodes were inserted into the oocyte, the voltage was clamped at a level lower by −30 mV than the resting membrane potential by a Two Electrode Voltage Clamp technique, and the current value was measured.
To measure the ENaC activation potency, oocyte was stimulated with each test compound, and the minimum effective dose (hereinafter to be abbreviated as MED) of the compound at the time point when the electric current started to increase was measured. In this case, the minimum effective dose of the stimulation compound that increased the current value by not less than 10%, as compared to the current value before addition of the compound and without stimulation, was taken as MED. A smaller MED means higher ENaC activation potency.
Each test compound was directly dissolved in ND96, or first dissolved in dimethyl sulfoxide (DMSO) to 100 mM, and then prepared by diluting the solution with ND96 to a concentration used for the evaluation. The concentration of the test compound in ND96 was prepared to various concentrations within the range of 0.1 nM to 300 μm.
ND96 as a perfusion fluid was flowed at a rate of 0.5 mL/min through the measuring apparatus OpusXpress 6000A on which ENaC-expressing oocyte was set, the perfusion fluid was temporarily stopped every 3 minutes to add a test compound solution (0.25 mL) dissolved in ND96 at a rate of 0.5 mL/minute. In this way, the test compound was contacted with ENaC-expressing oocyte, and whether ENaC is activated by the compound was examined by measuring the current value. After addition of the test compound, feeding of the perfusion fluid was resumed to wash away the compound to be ready for the next addition of the compound.
The compound was added successively from a low concentration to a high concentration to stimulate ENaC-expressing oocyte. The concentrations actually added was, for example, 1 nM, 3 nM, 10 nM, 30 nM, 100 nM, 300 nM; 1 μM, 3 μM, 10 μm, 30 μm, 100 μm, 300 μm; 1.2 μM, 6 μM, 30 μm, 150 μm of one test compound. The compound was added from low concentrations to high concentrations at 3 minute intervals. The first compound was added from a low concentration to a high concentration, then the second and the third compounds were similarly added successively to the same oocyte, and changes in the current value were measured. The current value was continuously measured from the start to the end of the experiment. […]

Row | Structure (SMILES) | MED value (minimum effective dose)
1 | COC(=O)[C@H](Cc1ccccc1)NC(=O)c1c(O)cc(C)cc1O [Example 118] | 10 µM
2 | CC(C)(C)OC(=O)NC(Cc1c[nH]c2ccccc12)C(=O)Nc1c(O)cccc1O (stereo in doubt) [Example 21, tert-butyl (S)-1-(2,6-dihydroxyphenylcarbamoyl)-2-(1H-indol-3-yl)ethylcarbamate] | 10 µM
3 | O=C(CCc1ccccc1)N[C@@H](Cc1ccccc1)C(=O)O [Example 72] | 1 to 3 µM
4 | O=C(NCCc1c[nH]c2ccc(O)cc12)c1cccc(O)c1O [Example 32] | 1.2-6^ μM
5 | COC(=O)[C@H](Cc1ccccc1)NC(=O)c1c(O)cc(O)cc1O [Example 122] | 1 µM
6 | O=C(N[C@H](CO)Cc1c[nH]c2ccccc12)c1c(O)cccc1O [Example 14] | 1 µM
7 | O=C(NC(Cc1c[nH]c2ccccc12)C(=O)O)c1cccc(O)c1O (stereo not shown) [Example 39] | 1 µM
8 | COC(=O)[C@H](Cc1cn(C)c2ccccc12)NC(=O)c1c(O)cccc1O [Example 11] | 3 µM
9 | O=C(NCCc1c[nH]c2ccc(O)cc12)c1c(Cl)cccc1Cl [Example 27] | 3 µM
10 | CC(C)(C)OC(=O)N[C@@H](Cc1c[nH]c2ccccc12)C(=O)Nc1c(O)cccc1O [Example 20] | 10 µM
11 | N[C@@H](CCc1ccccc1)C(=O)Nc1c(O)cccc1O [Example 81] | 3 µM
12 | COC(=O)[C@H](Cc1c[nH]c2ccccc12)NC(=O)c1c(O)cccc1O [Example 1, (S)-Methyl 2-(2,6-dihydroxybenzamido)-3-(1H-indol-3-yl)propanoate] | 0.6 µM
13 | COC(=O)[C@H](Cc1c[nH]c2ccccc12)NC(=O)c1c(O)cc(C)cc1O [Example 112] | 1 µM
14 | O=C(N[C@@H](Cc1c[nH]c2ccccc12)C(=O)O)c1c(O)cc(O)cc1O [Example 121] | 3 µM
15 | O=C(N[C@@H](Cc1c[nH]c2ccccc12)C(=O)O)c1ccc(Br)cc1O [Example 110] | 0.1 to 0.3 µM
16 | COC(=O)[C@H](CCc1ccccc1)NC(=O)c1cc(Br)ccc1O [Example 98] | 10 µM
17 | Cc1cc(O)c(C(=O)N[C@@H](Cc2c[nH]c3ccccc23)C(=O)O)c(O)c1 [Example 113] | 0.3 µM

Row | Structure (SMILES) | MED value (minimum effective dose)
18 | Cc1cc(O)c(C(=O)NCCc2c[nH]c3ccc(O)cc23)c(O)c1 [Example 29] | 1 to 3 µM
19 | O=C(NCCc1c[nH]c2ccccc12)c1cc(O)ccc1O [Example 42] | 1 to 3 µM
20 | O=C(NCCc1c[nH]c2ccccc12)c1c(O)cccc1O [Example 84] | 0.3 µM
21 | Cc1cc(O)c(C(=O)N[C@@H](Cc2ccccc2)C(=O)O)c(O)c1 [Example 115] | 0.3 µM
22 | COC(=O)C(Cc1c[nH]c2cc(F)ccc12)NC(=O)c1c(O)cccc1O (stereo not shown) [Example 17] | 1 µM
23 | O=C(CCc1ccccc1)NC(Cc1c[nH]c2ccc(F)cc12)C(=O)O (stereo not shown) [Example 76] | 3 µM
24 | O=C(N[C@@H](Cc1ccccc1)C(=O)O)c1c(O)cccc1O [Example 82] | 1 µM
25 | O=C(CCc1ccc2c(c1)OCO2)N[C@@H](Cc1c[nH]c2ccccc12)C(=O)O [Example 66] | 3 µM
26 | Cc1cc(O)c(C(=O)N[C@@H](CCc2ccccc2)C(=O)O)c(O)c1 [Example 117] | 0.3 µM
27 | O=C(NCCc1c[nH]c2ccc(O)cc12)c1ccccc1O [Example 6] | 3 µM
28 | N[C@@H](Cc1ccccc1)C(=O)Nc1c(O)cccc1O [Example 80] | 3 µM
29 | Cc1cc(O)c(C(=O)NCCc2c[nH]c3ccccc23)c(O)c1 [Example 124] | 3 µM
30 | N[C@@H](Cc1c[nH]c2ccccc12)C(=O)Nc1c(O)cccc1O [Example 22] | 3 µM
31 | COC(=O)C(C)(Cc1c[nH]c2ccccc12)NC(=O)c1c(O)cccc1O (stereo not shown) [Example 16] | 3 µM
32 | Cn1cc(C[C@H](NC(=O)CCc2ccccc2)C(=O)O)c2ccccc21 [Example 71] | 1 to 3 µM
33 | CN(C(=O)CCc1ccccc1)[C@@H](Cc1ccccc1)C(=O)O [Example 78] | 3 µM
34 | COc1ccc(CCC(=O)N[C@@H](Cc2c[nH]c3ccccc23)C(=O)O)cc1 [Example 65] | 3 µM
